Literature values as cited in US20180243207A1, “DUAL-RELEASE FLEXIBLE F[…] IN […] HOSPICE CARES OF ELDERLY PATIENTS” (priority 2017, published 2018).

Experiments:
[1] = target: T1, α3-GABAA receptors (Homo sapiens, UniProt P18507+P34903)
T1 sequence (P34903 29-492): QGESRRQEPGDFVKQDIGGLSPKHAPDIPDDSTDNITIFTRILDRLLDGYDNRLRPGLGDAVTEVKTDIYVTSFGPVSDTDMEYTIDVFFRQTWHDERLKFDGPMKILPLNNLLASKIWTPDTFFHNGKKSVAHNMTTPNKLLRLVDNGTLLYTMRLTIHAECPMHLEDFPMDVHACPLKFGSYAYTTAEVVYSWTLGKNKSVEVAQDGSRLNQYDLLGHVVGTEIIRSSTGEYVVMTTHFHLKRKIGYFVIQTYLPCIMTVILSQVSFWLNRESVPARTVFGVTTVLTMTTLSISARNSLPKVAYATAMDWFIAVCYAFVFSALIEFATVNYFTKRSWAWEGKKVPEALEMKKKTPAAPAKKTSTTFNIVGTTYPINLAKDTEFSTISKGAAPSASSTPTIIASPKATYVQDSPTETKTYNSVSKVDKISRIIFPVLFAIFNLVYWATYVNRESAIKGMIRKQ
T1 sequence (P18507 40-467 limits assumed): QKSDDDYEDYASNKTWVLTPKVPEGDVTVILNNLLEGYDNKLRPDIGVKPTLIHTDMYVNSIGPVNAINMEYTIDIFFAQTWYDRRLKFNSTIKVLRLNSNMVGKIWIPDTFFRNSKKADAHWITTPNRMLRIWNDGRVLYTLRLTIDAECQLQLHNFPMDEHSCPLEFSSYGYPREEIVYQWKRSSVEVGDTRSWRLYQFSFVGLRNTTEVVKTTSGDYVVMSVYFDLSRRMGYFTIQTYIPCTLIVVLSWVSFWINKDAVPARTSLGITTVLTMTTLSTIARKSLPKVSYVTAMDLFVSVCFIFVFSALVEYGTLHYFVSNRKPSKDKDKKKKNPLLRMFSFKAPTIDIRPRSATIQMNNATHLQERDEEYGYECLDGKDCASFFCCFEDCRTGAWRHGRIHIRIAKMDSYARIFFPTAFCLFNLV
T1 sequence (P28472 26-473 partner): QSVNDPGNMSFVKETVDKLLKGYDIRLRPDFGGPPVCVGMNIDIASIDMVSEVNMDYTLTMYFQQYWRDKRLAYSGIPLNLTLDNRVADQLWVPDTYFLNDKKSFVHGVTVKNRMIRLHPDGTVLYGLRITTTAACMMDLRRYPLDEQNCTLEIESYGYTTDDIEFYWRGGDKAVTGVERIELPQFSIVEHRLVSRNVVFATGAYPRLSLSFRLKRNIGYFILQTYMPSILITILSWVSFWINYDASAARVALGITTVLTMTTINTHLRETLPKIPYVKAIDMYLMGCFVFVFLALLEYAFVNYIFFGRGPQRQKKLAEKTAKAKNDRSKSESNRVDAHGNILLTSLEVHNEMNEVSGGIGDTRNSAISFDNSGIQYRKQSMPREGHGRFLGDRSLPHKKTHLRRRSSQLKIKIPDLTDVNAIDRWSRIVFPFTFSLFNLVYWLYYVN

[2] = target: T2, α2-GABAA receptors (Homo sapiens, UniProt P18507+P47869)
T2 sequence (P47869 29-451): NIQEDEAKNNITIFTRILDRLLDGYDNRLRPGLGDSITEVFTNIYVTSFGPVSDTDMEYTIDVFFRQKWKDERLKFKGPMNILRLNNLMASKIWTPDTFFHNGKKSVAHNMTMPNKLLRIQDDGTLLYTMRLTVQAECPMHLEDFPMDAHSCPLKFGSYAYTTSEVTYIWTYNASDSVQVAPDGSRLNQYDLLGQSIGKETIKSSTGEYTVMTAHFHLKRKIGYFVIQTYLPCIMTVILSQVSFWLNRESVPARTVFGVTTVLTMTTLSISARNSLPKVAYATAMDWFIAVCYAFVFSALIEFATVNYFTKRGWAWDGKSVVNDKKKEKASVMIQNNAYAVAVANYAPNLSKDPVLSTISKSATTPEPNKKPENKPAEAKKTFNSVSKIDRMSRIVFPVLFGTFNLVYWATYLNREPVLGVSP
T2 sequence (P18507 40-467 limits assumed): T1 sequence (P18507 40-467 limits assumed)
T2 sequence (P28472 26-473 partner): T1 sequence (P28472 26-473 partner)

## O=C1Nc2ccc(Cl)cc2C(c2ccccc2Cl)=NC1O (centres unmarked) [Lorazepam]
[1]
  affinity to α3-GABAA receptors: high
[2]
  affinity to α2-GABAA receptors: intermediate
